Data: patent publication US10583141B2, “N-substituted hydroxamic acids with carbon-based leaving groups as efficient HNO donors and uses thereof” (The Johns Hopkins University, priority 2015, dated 2020)
Marks after values point to notes of the source that are not given here.

Legend:
[1] = Nitroxyl (HNO) production via N2O quantification in the headspace (GC), relative to Angeli's salt; details: N2O headspace analysis, 0.1 mM, 37° C. (SEM ± 5%; n = 3)
Text: Nitrous oxide (N2O) is produced via the dimerization and dehydration of HNO, and is the most common marker for nitroxyl production (Fukuto et al., Chem. Res. Toxicol. 18:790-801 (2005)). […] Using either nitrous oxide gas or Angeli's salt (“AS”) as a standard, the relative amounts of N2O released from compounds of the disclosure is examined via gas chromatography (“GC”) headspace analysis.
Another procedure for determining N2O released from compounds of the disclosure is as follows. A Varian CP-3800 instrument equipped with a 1041 injector, electron capture detector, and a 25 m 5 Å molecular sieve capillary column was applied for the analysis of nitrous oxide (N2O). Grade 5.0 nitrogen was used as both the carrier (8 mL/min) and the make-up (22 mL/min) gas. For all the measurements, the column oven temperature was kept constant at 150° C., and the injector oven and the detector oven were held at 200° C. and 300° C., respectively. A 100 μL gastight syringe with a sample-lock was used for all gas injections. Samples were prepared in 6 mL Wheaton Clr headspace vials with volumes pre-measured for sample uniformity (actual vial volume ranges from 5.8-6.3 mL). Vials were charged with 3 mL of phosphate buffer containing the metal chelator, diethylenetriaminepentaacetic acid (DTPA), and fit with rubber septa and 20 mm aluminum seals. The vials were purged with argon and equilibrated for at least 10 minutes at 37° C. in a dry block heater. A 10 mM stock solution of Angeli's salt (AS) was prepared in 10 mM sodium hydroxide, and compounds of the disclosure (10 mM) were prepared in acetonitrile and used immediately after preparation. 30 μL of the stock solutions was transferred into vials using a gastight syringe, yielding final concentrations of 0.1 mM. Substrates were then incubated long enough to ensure complete decomposition and equilibration of N2O with the headspace. For each sample, 60 μL of the headspace was sampled and injected three times using a gastight syringe with a sample lock. The N2O yield was averaged and reported relative to the standard, Angeli's salt. HNO yields were measured either at the half-life of the donor or after complete decomposition of the donor and are reported relative to the standard HNO donor, Angeli's salt, as determined by N2O headspace analysis (SEM±5%; n=3).

[2] = Stability (half-life of donor decomposition) via 1H NMR protocol; assay type: physicochemical; details: 5 mM donor in 10% DMSO-d6, 10% D2O, 80% H2O, phosphate buffer (0.25M) with DTPA (0.2 mM), pH 7.4, 37° C., under argon
Text: A ^1H NMR spectroscopy protocol was used to measure the half-life of donor decomposition by quantifying donor and the corresponding byproduct as a function of time (Guthrie, D. A.; Ho, A.; Takahashi, C. G.; Collins, A.; Morris, M.; Toscano, J. P. J. Org. Chem. 2015, 80, 1338-1348; and Guthrie, D. A.; Nourian, S.; Takahashi, C. G.; Toscano, J. P. J. Org. Chem. 2015, 80, 1349-1356). Based on distinctive chemical shifts of the compounds of the disclosure and their corresponding byproducts, the decomposition of the compounds of the disclosure and release of their byproduct was easily monitored. Utilizing this assay, the half-lives of particular compounds of the disclosure were determined under physiologically relevant conditions (Table 2).

[3] = Decomposition kinetics via UV-VIS protocol (growth of pyrazolone byproduct absorbance); assay type: physicochemical; details: phosphate buffer; for decomposition (UV-VIS, in words): pH 7.4, 37° C.
Protocol: (§1) A UV-VIS protocol was used to determine the decomposition kinetics of compounds 1, 3, 5 and 6. According to this protocol, decomposition of Compound 5, was monitored by examining the growth of the distinctive absorbance of the pyrazolone byproduct (λ=265 nm) at pH 7.4 and 37° C. in phosphate buffer as a function of pH (Guthrie, D. A., Kim, N. Y., Siegler, M. A.; Moore, C. D., Toscano, J. P. J. Am. Chem. Soc. 2012, 134, 1962-1965; and Guthrie, D. A.; Ho, A.; Takahashi, C. G.; Collins, A., Morris, M.; Toscano, J. P. J. Org. Chem. 2015, 80, 1338-1348). The decomposition of rate is pH-dependent, and based on the experimental kinetic data, the pKa of Compound 5 was estimated to be 10.7. Following this protocol, the decomposition kinetics for compounds […] were determined. […] Thus, the pKa values of Compounds 1 (10.0) and 3 (9.1) in 50% (v/v) aqueous ethanol were measured by titration with NaOH solution.

[4] = pKa by titration with NaOH solution; assay type: physicochemical; details: 50% (v/v) aqueous ethanol
Protocol: as §1

[5] = Stability in the presence of a pyrazolone by 1H NMR (mechanistic study); assay type: physicochemical
Protocol: A ^1H NMR Spectroscopy Protocol was used to confirm the formation of nitroso carbonyls following decomposition of compound 5. In this protocol, 0.5 mM Compound 5 was incubated in the presence of 0.5 mM 3,4-dimethyl-N-phenylpyrazolone in 0.25 M phosphate buffer with 0.2 mM DTPA at pH 7.4, 80% H2O, 10% D2O, and 10% DMSO-d6 at 37° C. under argon. Spectra were collected at the start of the experiment and after complete decomposition.
To eliminate the possibility of direct attack of 3,4-dimethyl-1-phenyl-1H-pyrazol-5(4H)-one on the amidic nitrogen of hydroxamic acid moiety in Compound 1 through a SN2 reaction (Glover, S. A.; Rauk, A.; Buccigross, J. M.; Campbell. J. J.; Hammond, G. P.; Guoning, M.; Andrews. L. E.: Gillson, A. M. Can. J. Chem. 2005, 83, 1492-1509), the stability of Compound 11 in the presence of 4-(acetyl-O-methoxyoxime)-N-phenyl-3-methyl-pyrazolone was confirmed by ^1H NMR.

[6] = HNO yield at the half-life of the donor
[7] = HNO yield after complete decomposition of the donor

In the case of `CO/N=C(\C)C1(N(O)C(C)=O)C(=O)N(c2ccccc2)N=C1C` (stereo not shown) [Compound 1, N-hydroxy-N-(4-(1-(methoxyimino)ethyl)-3-methyl-5-oxo-1-phenyl-4,5-dihydro-1H-pyrazol-4-yl)acetamide], the “% HNO” value [1, 6] is reported as 82^a %, the half-life at 5 mM [2] is reported as 120 h and the “decomposition (UV-VIS, in words)” value [3] is reported as “stable for 1 hour”. For the same compound, the pKa [4] was 10.
In the case of `CO/N=C(\C)C1(N(O)C(=O)OC)C(=O)N(c2ccccc2)N=C1C` (stereo not shown) [Compound 3, Methyl hydroxy(4-(1-(methoxyimino)ethyl)-3-methyl-5-oxo-1-phenyl-4,5-dihydro-1H-pyrazol-4-yl)carbamate], the “% HNO” value [1, 6] is reported as 104^a %, the half-life at 5 mM [2] is reported as 48 h and the “decomposition (UV-VIS, in words)” value [3] is reported as “decomposed slowly”. The pKa [4] was 9.1.
With `CO/N=C(\C)C1(N(O)C(=O)OC)C(=O)N(C)N=C1C` (stereo not shown) [Compound 4, Methyl hydroxy(4-(1-(methoxyimino)ethyl)-1,3-dimethyl-5-oxo-4,5-dihydro-1H-pyrazol-4-yl)carbamate] the “% HNO” value [1, 6] was 94^a % and the half-life at 5 mM [2] was 96 h.
In the case of `CO/N=C(\C)C1(N(O)C(=O)N(C)C)C(=O)N(c2ccccc2)N=C1C` (stereo not shown) [Compound 5, 1-hydroxy-1-(4-(1-(methoxyimino)ethyl)-3-methyl-5-oxo-1-phenyl-4,5-dihydro-1H-pyrazol-4-yl)-3,3-dimethylurea], the “% HNO” value [1, 7] is reported as >95^b %, the half-life at 5 mM [2] is reported as 0.417 h and the pKa ([3]; estimated from pH-dependent decomposition kinetic data, 37° C.) is reported as 10.7.
With `CO/N=C(\C)C1(N(O)C(=O)N(C)C)C(=O)N(C)N=C1C` (stereo not shown) [Compound 6, 1-hydroxy-1-(4-(1-(methoxyimino)ethyl)-1,3-dimethyl-5-oxo-4,5-dihydro-1H-pyrazol-4-yl)-3,3-dimethylurea] the “% HNO” value [1, 7] was >95^b % and the half-life at 5 mM [2] was 0.767 h.
With `CC(=O)N(O)C1(C)C(=O)N(c2ccccc2)N=C1C` (stereo not shown) [Compound 11, N-hydroxy-N-(3,4-dimethyl-5-oxo-1-phenyl-4,5-dihydro-1H-pyrazol-4-yl)-acetamide] the “stability in the presence of 4-(acetyl-O-methoxyoxime)-N-phenyl-3-methyl-pyrazolone” value [5] was “confirmed”.
